Test results as given in US20220016099A1, “BENZIMIDAZOLE OR BENZOXAZOLE DERIVATIVES FOR PREVENTING AND TREATING CENTRAL NERVOUS SYSTEM DISEASE, DIABETES, AND COMPLICATIONS THEREOF” (TRINUERO, priority 2018, published 2022).

Each compound was assayed on Nrf2 (assay: Nrf2 activity by A549-ARE luciferase assay). Details: A549-ARE cell line, 10 μM of each compound in DMSO; Nrf2 activity (%) of compound relative to DMSO using luciferase assay; read-out: Nrf2 activity.
Assay type: cell-based
Protocol: Example 1: Method for Measuring Nrf2 Activity of Benzimidazole or Benzoxazole Derivatives Using A549-ARE Luciferase Assay
An assay for Nrf2 activity was performed by modification of the method reported in Ilse M. Beck et al., (2013), European Journal of Pharmacology 715. 1-9.
Specifically, A549-ARE cell line was dispensed into a 96-well plate, and then subjected to treatment with a solution obtained by dissolving 10 μM of each compound in Table 2 in dimethyl sulfoxide (DMSO). On the other hand, Compounds 1 and 13 as shown in Table 2 were obtained from Sigma-Aldrich (US); Compounds 2, 5, 8, 9 12, 15, 18 to 20, 23, 25, 30, and 32 were obtained from Tokyo Chemical Industry Co., Ltd. (JP); Compound 3 was obtained from Labseeker (CN); Compound 4 was obtained from BOC Science (US); Compounds 6 and 7 were obtained from Cambridge (US); Compounds 10, 11, 16, 17, 21, and 22 were obtained from Toronto Research Chemicals (CA); Compound 14 was obtained from Selleckchem (US); Compounds 24, 26, 27, and 31 were obtained from BLD Pharm (CN); Compounds 28 and 33 were obtained from Mcule (US); Compound 29 was obtained from Chemshuttle (US); and Compound 34 was obtained from Alinda (RU).
Thereafter, the 96-well plate was treated with 30 μl of luciferase lysis buffer (90.8 mM K2HPO4, 9.2 mM KH2PO4, 0.1% Triton X-100), and then incubated for 30 minutes or longer so that cell lysis proceeded. The incubated cell lysate was transferred to another 96-well plate (white plate), and then each well was treated with 100 μl of luciferase buffer mixture (20 mM Tricine, 1.07 mM [(MgCO3)4Mg(OH)2.5H2O], 2.67 mM [MgSO4.7H2O], 0.1 mM EDTA, 33.3 mM DTT, 270 μM coenzyme A [CoA], 500 μM D-luciferin, 530 μM ATP). Immediately after the treatment, […] was performed to check Nrf2 activity.

Compound | activity at 10 µM
COCCCOc1ccnc(C[S+]([O-])c2nc3ccccc3[nH]2)c1C (stereo not drawn) [Compound 19, rabeprazole, reference compound] | > 100%
Cc1c(OCC(F)(F)F)ccnc1C[S+]([O-])c1nc2ccccc2[nH]1 (stereo not drawn) [Compound 8, lansoprazole, reference compound] | > 100%
Cc1cccc2[nH]c(=S)[nH]c12 [Compound 24, 4-methyl-1H-benzimidazole-2-thiol] | 0 to 30%
COCCCOc1ccnc(CS(=O)(=O)c2nc3ccccc3[nH]2)c1C [Compound 21, rabeprazole sulfone] | 0 to 30%
COc1ccc2[nH]c([S+]([O-])Cc3c(C)c(OC)c(C)c[n+]3[O-])nc2c1 (stereo not drawn) [Compound 4, omeprazole N-oxide] | 0 to 30%
S=c1[nH]c2ccc(Cl)cc2[nH]1 [Compound 32, 5-chloro-2-mercaptobenzimidazole] | 70 to 100%
Cn1c(S)nc2ccccc21 [Compound 13, 1-methyl-1H-benzimidazole-2-thiol] | 0 to 30%
COc1ccc2[nH]c([S+]([O-])Cc3ncc(C)c(OC)c3C)nc2c1 (stereo not drawn) [Compound 1, omeprazole, reference compound] | 0 to 30%
O=c1[nH]c2cc(Cl)c(O)cc2o1 [Compound 31, 6-hydroxychlorzoxazone] | 0 to 30%
COc1ccc2[nH]c(S)nc2c1 [Compound 5, 5-methoxy-2-benzimidazolethiol] | 30 to 70%
COc1ccc2c(c1)nc(S)n2C [Compound 6, 5-methoxy-1-methyl-1H-benzimidazole-2-thiol] | 30 to 70%
O=c1[nH]c2c(Cl)c(Cl)c(Cl)cc2o1 [Compound 28, 4,5,6-trichloro-3H-a,3-benzoxazol-2-one] | 0 to 30%
COc1cc[n+]([O-])c(C[S+]([O-])c2nc3cc(OC(F)F)ccc3[nH]2)c1OC (stereo not drawn) [Compound 17, pantoprazole N-oxide] | 70 to 100%
S=c1[nH]c2cc3ccccc3cc2[nH]1 [Compound 33, 1,3-dihydrobenzo[f]benzimidazole-2-thione] | 0 to 30%
O=S(=O)(O)c1ccc2[nH]c(=S)[nH]c2c1 [Compound 25, 2-sulfanyl-1H-benzimidazole-5-sulfonic acid] | 0 to 30%
COc1ccnc(C[S+]([O-])c2nc3cc(OC(F)F)ccc3[nH]2)c1OC (stereo not drawn) [Compound 14, pantoprazole, reference compound] | 70 to 100%

Compound | activity at 10 µM
COc1ccc2[nH]c(SC)nc2c1 [Compound 7, 5-methoxy-2-(methylthio)-1H-benzimidazole] | 0 to 30%
COc1cc2nc(S)[nH]c2cc1OC [Compound 34, 5,6-dimethoxy-1H-benzo[d]imidazol-2-thiol] | 0 to 30%
COc1ccc2[nH]c(=O)oc2c1 [Compound 29, 6-methoxybenzo[d]oxazol-2(3H)-one] | 30 to 70%
COc1ccnc(CS(=O)(=O)c2nc3cc(OC(F)F)ccc3[nH]2)c1OC [Compound 16, pantoprazole sulfone] | 0 to 30%
COc1ccnc(CSc2nc3cc(OC(F)F)ccc3[nH]2)c1OC [Compound 15, pantoprazole sulfide] | 0 to 30%
O=[N+]([O-])c1ccc2[nH]c(=S)[nH]c2c1 [Compound 30, 2-mercapto-5-nitrobenzimidazole] | 0 to 30%
COc1ccc2[nH]c(S(=O)(=O)Cc3ncc(C)c(OC)c3C)nc2c1 [Compound 3, omeprazole sulfone] | 0 to 30%
COc1ccc2[nH]c(SCc3ncc(C)c(OC)c3C)nc2c1 [Compound 2, omeprazole sulfide] | 0 to 30%
O=C1Cc2cc(O)ccc2N1 [Compound 27, 5-hydroxyindolin-2-one] | 0 to 30%
Cc1c(OCC(F)(F)F)cc[n+]([O-])c1C[S+]([O-])c1nc2ccccc2[nH]1 (stereo not drawn) [Compound 11, lansoprazole N-oxide] | 70 to 100%
Cc1c(OCC(F)(F)F)ccnc1CSc1nc2ccccc2[nH]1 [Compound 9, lansoprazole sulfide] | 70 to 100%
COCCCOc1cc[n+]([O-])c(C[S+]([O-])c2nc3ccccc3[nH]2)c1C (stereo not drawn) [Compound 22, rabeprazole N-oxide] | 70 to 100%
COCCCOc1ccnc(CSc2nc3ccccc3[nH]2)c1C [Compound 20, rabeprazole sulfide] | > 100%
Cc1c(OCC(F)(F)F)ccnc1CS(=O)(=O)c1nc2ccccc2[nH]1 [Compound 10, lansoprazole sulfone] | 0 to 30%
FC(F)Oc1ccc2nc(S)[nH]c2c1 [Compound 18, 5-difluoromethoxy-2-mercaptobenzimidazole] | 0 to 30%
O=c1[nH]c2ccc(Cl)cc2[nH]1 [Compound 26, 5-chloro-1,3-dihydrobenzimidazol-2-one] | 0 to 30%

Same assay, conditions: read-out: Nrf2 activity

Compound | activity at 10 µM
Sc1nc2ccccc2[nH]1 [Compound 12, 2-mercaptobenzimidazole] | 0 to 30%
